Reference: ChEMBL document CHEMBL2331203, “Optimization of inhibitors of the tyrosine kinase EphB4. 2. Cellular potency improvement and binding mode validation by X-ray crystallography” (J Med Chem, 2013)
pIC50: −log10 of the molar value.

Legend:
in vitro = conditions: human, Caco-2
Description: Efflux ratio of apparent permeability from basolateral to apical side to apical to basolateral side in human Caco2 cells

Ephrin type-B receptor 4 = molecular target: T1, Ephrin type-B receptor 4 (Homo sapiens, UniProt P54760)
T1 sequence (P54760 whole entry): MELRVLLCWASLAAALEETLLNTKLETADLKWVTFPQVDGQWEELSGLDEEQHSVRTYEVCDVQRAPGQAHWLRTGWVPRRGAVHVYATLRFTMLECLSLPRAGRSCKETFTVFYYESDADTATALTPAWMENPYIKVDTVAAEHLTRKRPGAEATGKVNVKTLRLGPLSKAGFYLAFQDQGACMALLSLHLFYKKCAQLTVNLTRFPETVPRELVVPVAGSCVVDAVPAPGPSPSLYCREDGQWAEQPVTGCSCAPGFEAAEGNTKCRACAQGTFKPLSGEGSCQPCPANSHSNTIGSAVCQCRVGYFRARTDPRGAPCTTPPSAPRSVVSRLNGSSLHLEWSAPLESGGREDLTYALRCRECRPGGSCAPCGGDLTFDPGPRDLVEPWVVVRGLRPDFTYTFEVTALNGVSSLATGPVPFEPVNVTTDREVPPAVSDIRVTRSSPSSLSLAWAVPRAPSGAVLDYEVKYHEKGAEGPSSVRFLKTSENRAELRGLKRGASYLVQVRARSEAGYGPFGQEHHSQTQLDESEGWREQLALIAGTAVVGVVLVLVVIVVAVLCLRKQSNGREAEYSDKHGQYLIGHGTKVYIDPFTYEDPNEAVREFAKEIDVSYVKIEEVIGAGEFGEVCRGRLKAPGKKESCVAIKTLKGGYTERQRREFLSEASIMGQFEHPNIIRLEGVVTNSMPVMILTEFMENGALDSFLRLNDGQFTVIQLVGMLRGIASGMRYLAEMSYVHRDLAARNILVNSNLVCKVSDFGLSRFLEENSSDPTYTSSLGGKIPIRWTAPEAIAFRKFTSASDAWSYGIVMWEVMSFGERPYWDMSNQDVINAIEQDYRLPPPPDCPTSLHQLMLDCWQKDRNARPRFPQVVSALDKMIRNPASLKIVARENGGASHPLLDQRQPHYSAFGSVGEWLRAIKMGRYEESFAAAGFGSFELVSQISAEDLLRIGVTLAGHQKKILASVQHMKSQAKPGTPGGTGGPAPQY
Description: Inhibition of human myc-tagged full length EphB4 expressed in MEF cells assessed as inhibition of ephrinB2-Fc-induced autophosphorylation incubated for 90 mins prior to ephrinB2-Fc-induction measured after 2 hrs by sandwich ELISA

[1] = molecular target: T2, Tyrosine-protein kinase Yes (Homo sapiens, UniProt P07947); assay: Inhibition of human Yes1 using [gamma-33P]ATP assessed as residual activity at 3 uM after 30 mins by radiometric assay
Target sequence in this assay (P07947 2-543 limits assumed): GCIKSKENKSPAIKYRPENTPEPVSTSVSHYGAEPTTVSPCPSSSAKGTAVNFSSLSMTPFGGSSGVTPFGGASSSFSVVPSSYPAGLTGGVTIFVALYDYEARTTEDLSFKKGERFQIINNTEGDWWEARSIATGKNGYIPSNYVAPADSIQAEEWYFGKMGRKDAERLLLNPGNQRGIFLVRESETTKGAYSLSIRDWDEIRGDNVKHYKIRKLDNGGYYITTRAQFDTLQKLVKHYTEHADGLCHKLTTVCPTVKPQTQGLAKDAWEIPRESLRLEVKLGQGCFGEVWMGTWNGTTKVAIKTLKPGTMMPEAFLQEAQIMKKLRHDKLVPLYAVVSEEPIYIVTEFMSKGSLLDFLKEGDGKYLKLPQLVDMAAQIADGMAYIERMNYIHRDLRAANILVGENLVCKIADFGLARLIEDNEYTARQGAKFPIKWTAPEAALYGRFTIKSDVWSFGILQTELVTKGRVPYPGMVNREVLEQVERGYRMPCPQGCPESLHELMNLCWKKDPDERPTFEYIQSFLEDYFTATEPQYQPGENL

[2] = Permeability from apical to basolateral side in human Caco2 cells assessed as compound recovery after 2 hrs by LC-MS/MS analysis; type: ADME, cell-based; conditions: Caco-2, read-out: permeability
[3] = Cytotoxicity against human CXF 1103L cells after 4 days by propidium iodide staining; conditions: 96 h
[4] = molecular target: T2, Tyrosine-protein kinase Yes; assay: Inhibition of Yes1 (unknown origin) using [gamma-33P]ATP after 30 mins by radiometric assay
Target sequence in this assay (P07947 whole entry): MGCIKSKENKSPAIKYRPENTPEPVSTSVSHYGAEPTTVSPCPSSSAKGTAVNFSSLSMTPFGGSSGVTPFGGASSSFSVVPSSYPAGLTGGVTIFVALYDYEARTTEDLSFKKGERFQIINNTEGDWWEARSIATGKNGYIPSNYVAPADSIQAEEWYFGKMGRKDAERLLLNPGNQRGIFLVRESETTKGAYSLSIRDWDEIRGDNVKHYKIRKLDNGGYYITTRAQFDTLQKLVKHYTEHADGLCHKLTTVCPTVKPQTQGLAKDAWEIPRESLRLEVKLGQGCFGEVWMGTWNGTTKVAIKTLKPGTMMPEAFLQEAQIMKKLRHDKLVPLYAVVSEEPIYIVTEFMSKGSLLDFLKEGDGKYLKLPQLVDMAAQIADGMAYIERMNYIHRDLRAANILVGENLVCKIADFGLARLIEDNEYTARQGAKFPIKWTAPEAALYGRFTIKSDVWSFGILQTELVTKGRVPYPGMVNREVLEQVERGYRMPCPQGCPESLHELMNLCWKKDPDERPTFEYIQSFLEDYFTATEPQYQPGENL

Question: Which efflux ratio (in vitro) does the source give for `CCCCn1c(-c2ccccc2C)cn2c3c(=O)[nH]c(=O)n(C)c3nc12` here?
Answer: The efflux ratio was 0.7.

Question: What about the pIC50 (Ephrin type-B receptor 4) of the same compound?
Answer: The pIC50 was 7.30.

Question: And the Activity [1]?
Answer: The Activity was 14%.

Question: What about the recovery at 2 h [2] of the same compound?
Answer: Its recovery at 2 h is 85%.

Question: What about the pIC50 [3] of the same compound?
Answer: The pIC50 was 5.34.

Question: What about the pIC50 [4] of the same compound?
Answer: Its pIC50 is 6.55.
